Measured values: PubChem BioAssay (NCI)
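Cells were grown in 96-well plates and exposed to each compound for 48 hours at five concentrations; endpoints were interpolated linearly between bracketing concentrations, or set to the highest concentration if not reached. At the GI50, growth is halved. At the TGI there is no net growth.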

Tests used:
Test in all cases: NCI-60 cell line screen, 48 h
786-0 renal = system: 786-0 renal
A549 NSCLC = system: A549 NSCLC
ACHN renal = system: ACHN renal
BT-549 breast = system: BT-549 breast
CAKI-1 renal = system: CAKI-1 renal
CCRF-CEM leukemia = system: CCRF-CEM leukemia
COLO 205 colon = system: COLO 205 colon
DU-145 prostate = system: DU-145 prostate
EKVX NSCLC = system: EKVX NSCLC
HCC-2998 colon = system: HCC-2998 colon
HCT-116 colon = system: HCT-116 colon
HCT-15 colon = system: HCT-15 colon
HL-60(TB) leukemia = system: HL-60(TB) leukemia
HOP-62 NSCLC = system: HOP-62 NSCLC
HOP-92 NSCLC = system: HOP-92 NSCLC
HS 578T breast = system: HS 578T breast
HT29 colon = system: HT29 colon
IGROV1 ovarian = system: IGROV1 ovarian
K-562 leukemia = system: K-562 leukemia
KM12 colon = system: KM12 colon
LOX IMVI melanoma = system: LOX IMVI melanoma
M14 melanoma = system: M14 melanoma
MALME-3M melanoma = system: MALME-3M melanoma
MCF7 breast = system: MCF7 breast
MDA-MB-231 breast = system: MDA-MB-231 breast
MDA-MB-435 = system: MDA-MB-435
MOLT-4 leukemia = system: MOLT-4 leukemia
NCI-H226 lung = system: NCI-H226 lung
NCI-H23 lung = system: NCI-H23 lung
NCI-H460 lung = system: NCI-H460 lung
NCI-H522 lung = system: NCI-H522 lung
NCI/ADR-RES ovarian = system: NCI/ADR-RES ovarian
OVCAR-3 ovarian = system: OVCAR-3 ovarian
OVCAR-4 ovarian = system: OVCAR-4 ovarian
OVCAR-5 ovarian = system: OVCAR-5 ovarian
OVCAR-8 ovarian = system: OVCAR-8 ovarian
PC-3 prostate = system: PC-3 prostate
RPMI-8226 leukemia = system: RPMI-8226 leukemia
RXF 393 renal = system: RXF 393 renal
SF-268 CNS = system: SF-268 CNS
SF-295 CNS = system: SF-295 CNS
SF-539 CNS = system: SF-539 CNS
SK-MEL-2 melanoma = system: SK-MEL-2 melanoma
SK-MEL-28 melanoma = system: SK-MEL-28 melanoma
SK-MEL-5 melanoma = system: SK-MEL-5 melanoma
SK-OV-3 ovarian = system: SK-OV-3 ovarian
SN12C renal = system: SN12C renal
SNB-19 CNS = system: SNB-19 CNS
SNB-75 CNS = system: SNB-75 CNS
SR leukemia = system: SR leukemia
SW-620 colon = system: SW-620 colon
T-47D breast = system: T-47D breast
TK-10 renal = system: TK-10 renal
U251 CNS = system: U251 CNS
UACC-257 melanoma = system: UACC-257 melanoma
UACC-62 melanoma = system: UACC-62 melanoma
UO-31 renal = system: UO-31 renal

CC1=C2C(=O)[C@](C)(CO)C=C2C(=O)[C@](C)(O)C12CC2
GI50 (786-0 renal): 2.1 µM | TGI (786-0 renal): 4.92 µM | GI50 (A549 NSCLC): 2.91 µM | TGI (A549 NSCLC): 9.46 µM | GI50 (ACHN renal): 1.86 µM | TGI (ACHN renal): 3.56 µM | GI50 (BT-549 breast): 1.75 µM | TGI (BT-549 breast): 3.6 µM | GI50 (CAKI-1 renal): 1.63 µM | TGI (CAKI-1 renal): 3.07 µM | GI50 (CCRF-CEM leukemia): 3.08 µM | TGI (CCRF-CEM leukemia): 13.8 µM | GI50 (COLO 205 colon): 2.47 µM | TGI (COLO 205 colon): 6.4 µM | GI50 (DU-145 prostate): 2.2 µM | TGI (DU-145 prostate): 4.89 µM | GI50 (EKVX NSCLC): 3.05 µM | TGI (EKVX NSCLC): 10.2 µM | GI50 (HCC-2998 colon): 1.72 µM | TGI (HCC-2998 colon): 3.33 µM | GI50 (HCT-116 colon): 1.82 µM | TGI (HCT-116 colon): 3.84 µM | GI50 (HCT-15 colon): 2.08 µM | TGI (HCT-15 colon): 4.92 µM | GI50 (HL-60(TB) leukemia): 2.46 µM | TGI (HL-60(TB) leukemia): 6.21 µM | GI50 (HOP-62 NSCLC): 3.2 µM | TGI (HOP-62 NSCLC): 11.6 µM | GI50 (HOP-92 NSCLC): 2.12 µM | TGI (HOP-92 NSCLC): 4.45 µM | GI50 (HS 578T breast): 2.01 µM | TGI (HS 578T breast): 5 µM | GI50 (HT29 colon): 3.25 µM | TGI (HT29 colon): 11.8 µM | GI50 (IGROV1 ovarian): 2.4 µM | TGI (IGROV1 ovarian): 6.47 µM | GI50 (K-562 leukemia): 3.47 µM | TGI (K-562 leukemia): > 100 µM | GI50 (KM12 colon): 2.23 µM | TGI (KM12 colon): 5 µM | GI50 (LOX IMVI melanoma): 1.72 µM | TGI (LOX IMVI melanoma): 3.3 µM | GI50 (M14 melanoma): 1.8 µM | TGI (M14 melanoma): 3.56 µM | GI50 (MALME-3M melanoma): 1.86 µM | TGI (MALME-3M melanoma): 3.52 µM | GI50 (MCF7 breast): 1.47 µM | TGI (MCF7 breast): 3.16 µM | GI50 (MDA-MB-231 breast): 1.98 µM | TGI (MDA-MB-231 breast): 3.99 µM | GI50 (MDA-MB-435): 1.84 µM | TGI (MDA-MB-435): 3.41 µM | GI50 (MOLT-4 leukemia): 3.23 µM | TGI (MOLT-4 leukemia): 13.1 µM | GI50 (NCI-H226 lung): 2.18 µM | TGI (NCI-H226 lung): 5.71 µM | GI50 (NCI-H23 lung): 1.84 µM | TGI (NCI-H23 lung): 3.57 µM | GI50 (NCI-H460 lung): 2.49 µM | TGI (NCI-H460 lung): 7.21 µM | GI50 (NCI-H522 lung): 2.04 µM | TGI (NCI-H522 lung): 4.31 µM | GI50 (NCI/ADR-RES ovarian): 1.89 µM | TGI (NCI/ADR-RES ovarian): 4.02 µM | GI50 (OVCAR-3 ovarian): 1.8 µM | TGI (OVCAR-3 ovarian): 3.26 µM | GI50 (OVCAR-4 ovarian): 1.91 µM | TGI (OVCAR-4 ovarian): 3.36 µM | GI50 (OVCAR-5 ovarian): 2.53 µM | TGI (OVCAR-5 ovarian): 6.67 µM | GI50 (OVCAR-8 ovarian): 2.62 µM | TGI (OVCAR-8 ovarian): 8.31 µM | GI50 (PC-3 prostate): 2.83 µM | TGI (PC-3 prostate): 9.03 µM | GI50 (RPMI-8226 leukemia): 2.28 µM | TGI (RPMI-8226 leukemia): 5.63 µM | GI50 (RXF 393 renal): 1.88 µM | TGI (RXF 393 renal): 3.52 µM | GI50 (SF-268 CNS): 2.49 µM | TGI (SF-268 CNS): 7.05 µM | GI50 (SF-295 CNS): 2.22 µM | TGI (SF-295 CNS): 5.2 µM | GI50 (SF-539 CNS): 1.82 µM | TGI (SF-539 CNS): 3.54 µM | GI50 (SK-MEL-2 melanoma): 2.39 µM | TGI (SK-MEL-2 melanoma): 5.2 µM | GI50 (SK-MEL-28 melanoma): 2.06 µM | TGI (SK-MEL-28 melanoma): 4.19 µM | GI50 (SK-MEL-5 melanoma): 1.81 µM | TGI (SK-MEL-5 melanoma): 3.29 µM | GI50 (SK-OV-3 ovarian): 3.36 µM | TGI (SK-OV-3 ovarian): 10.9 µM | GI50 (SN12C renal): 2.19 µM | TGI (SN12C renal): 5.62 µM | GI50 (SNB-19 CNS): 3.05 µM | TGI (SNB-19 CNS): 10.5 µM | GI50 (SNB-75 CNS): 1.26 µM | TGI (SNB-75 CNS): 3.94 µM | GI50 (SR leukemia): 2.52 µM | TGI (SR leukemia): 17.7 µM | GI50 (SW-620 colon): 1.86 µM | TGI (SW-620 colon): 3.96 µM | GI50 (T-47D breast): 2.33 µM | TGI (T-47D breast): 6.42 µM | GI50 (TK-10 renal): 2.23 µM | TGI (TK-10 renal): 5.63 µM | GI50 (U251 CNS): 2.52 µM | TGI (U251 CNS): 7.48 µM | GI50 (UACC-257 melanoma): 2.59 µM | TGI (UACC-257 melanoma): 7.35 µM | GI50 (UACC-62 melanoma): 1.88 µM | TGI (UACC-62 melanoma): 3.89 µM | GI50 (UO-31 renal): 1.66 µM | TGI (UO-31 renal): 3.17 µM
